{"source": "patent US20110212909A1", "about": "“Use of Ginsenoside Compound K in the Preparation of a Medicament for the Prevention and Treatment of Atherosclerosis” (priority 2008, published 2011)", "key": {"[1]": {"system": "macrophage-derived foam cells of rat abdominal cavity", "experiment": "Assay of amount of TC and CE in ox-LDL induced macrophage-derived foam cells", "type": "cell-based", "settings": "25 μM, 48 hours, rat foam cells, x ± s, n = 5", "description": "1. Experiment animal: SD rats, male, 200-250 g, bought from the third Military Medical University Experiment Animal Center.\n2. Reagents: RPMI 1640 culture medium free of phenol red bought from Invitrogen company; LDL (115 mg/mL) bought from Peking Union Medical College; total cholesterol kit and free cholesterol kit bought from Shanghai Mind Bioengineering Limited Company; ginsenoside compound K (hereinafter being called C-K for short. White powders, purity 99%), provided by Kunming Nuowei Jinshen Bioengineering limited company supply (batch number: NTGA070521, details see China invention patent 200710066011. X “a method of preparing rare ginsenoside compound K by streptomycete fermentation of Sanchi saponins”).\nLDL was placed into PBS comprising 10 μM Cu^2+, dialysed at 37° C. for 12 h, then was placed into PBS comprising 0.01% EDTA, and dialysed at 4° C. for 24 hours before stopping oxidization, then was subjected to filtration sterilization, and stored for use.\n4. Culture of macrophage and establishment of foam cells model (available literature: Jia Yi, Li Xiaohui, Xing Mao, Hei Xuefeng, Liu Ya, He Cuiyao. Studies on affect of various combinations of 3 sorts of monomers in total panax notoginsenosides on formation of mouse macrophage-derived foam cells. Journal of China Pharmacy, 2008, 19 (2), 881-883.)\neach rat were intraperitoneally injected with 2 mL RPMI 1640 culture solution free of serum and phenol red, and it was sacrificed by cervical dislocation after 20 minutes, and was soaked in 75% ethanol for 10 minutes, then rat's belly was cut open, and fluids in abdominal cavity were collected, and centrifugated at 750 r/min for 5 minutes, and then cells were collected, and cells concentrations were adjusted to […] by using RPMI 1640 culture solution which were free of phenol red and comprised 10% Fetal Calf Serum. 10 pieces of 6 wells plate was added 1 mL cells suspension per well, and was placed into an incubator of 5% CO2 at 37 °C, and cultured for two hours, then supernatant was discarded, and nonadhesive cells was washed by using PBS. Original culture medium was discarded. Culture was carried out for 48 hours after adding 5 mL culture medium comprising 20 mg/L ox-LDL, and thereby foam cells were formed.\n[…] were divided into ox-LDL model group, pyrrolidine dithiocarbamate (PDTC) (drugs source: Sigma), control group and C-K interference group. Each group had 5 pieces of plates. […]\nCulture solution was aspirated, and lipid in foam cells was extracted by Folch method (reference: Folch J et al, A simple method for the isolation and purification of total lipides from animal tissues. J Biol Chem, 1957, 226 (1): 497-509), according to direction for use of kit.\nData was expressed as x±s, and variance analysis was carried out between groups by SPSS 13.0 software."}, "CD36 mRNA": {"system": "CD36 mRNA", "experiment": "Real-time quantitative PCR of CD36 mRNA in foam cells", "type": "cell-based", "settings": "25 μM, rat foam cells", "description": "FIG. 1 provides effects of a ginsenoside compound K (C-K, 25 μM) and pyrrolidine dithiocarbamate (PDTC, 25 μM) on the foam cell CD36 mRNA expression. a: P<0.05, vs foam cell group; b: P<0.05, vs PDTC. PDTC (25 μM) C-K (25 μM) (n=5).\n(1) Material and reagents (the same as Example 2).\n(2) real-time quantitative PCR analysis (a reference method: Zhang Yiguan, Li Xiaohui, Fan Jishan, Zhang Haigang, Li Shuhui, Liao Wenqiang, Pang Yan, Jia Yi. Total panax notoginsenosides suppress atherosclerosis formation in rats by means of antiinflammatory and blood fat regulating action. Progress in Modern Biomedicine. 2007, 27(11): 1601-1607).\nData was expressed as x±s, variance analysis were carried out between groups by SPSS 13.0 software."}}, "note": "Marks after values point to notes of the source that are not given here."}
{"smiles": "S=C(S)N1CCCC1", "note": "[PDTC, pyrrolidine dithiocarbamate, reference compound]", "values": [{"measurement": "CE in foam cells", "setting": "[1]; ox-LDL model group 15.24 ± 2.38", "result": "30.63 ± 3.17^a"}, {"measurement": "CE/TC in foam cells", "setting": "[1]; ox-LDL model group 59.56 ± 2.96", "result": "50.29 ± 3.54^a %"}, {"measurement": "TC in foam cells", "setting": "[1]; ox-LDL model group 87.20 ± 2.19", "result": "60.81 ± 2.62^a"}, {"measurement": "change of CD36 mRNA expression in foam cells compared with model group", "setting": "CD36 mRNA", "result": "increased expression"}]}
